From PubChem BioAssay (NCI)
Several values for one entry are separate records, joined by “and”; a condition that tells them apart may be missing. Identical values can stand only once.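 Test compounds were applied to cells in 96-well plates for 48 hours at 5 doses. GI50 marks 50% less growth. TGI: total growth inhibition.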

Tests used:
Assay in all cases: NCI tumour cell line growth inhibition, 48 h
CCRF-CEM leukemia = tested on: CCRF-CEM leukemia
COLO 205 colon = tested on: COLO 205 colon
HCT-15 colon = tested on: HCT-15 colon
HS 578T breast = tested on: HS 578T breast
MALME-3M melanoma = tested on: MALME-3M melanoma
MDA-MB-435 = tested on: MDA-MB-435
MOLT-4 leukemia = tested on: MOLT-4 leukemia
PC-3 prostate = tested on: PC-3 prostate
SF-268 CNS = tested on: SF-268 CNS
SK-MEL-5 melanoma = tested on: SK-MEL-5 melanoma
SNB-75 CNS = tested on: SNB-75 CNS
T-47D breast = tested on: T-47D breast
RPMI-8226 leukemia = tested on: RPMI-8226 leukemia

Structure (SMILES) | TGI (CCRF-CEM leukemia) [µM] | TGI (COLO 205 colon) | TGI (HCT-15 colon) | TGI (HS 578T breast) [µM] | TGI (MALME-3M melanoma) | TGI (MDA-MB-435) [µM] | TGI (MOLT-4 leukemia) | TGI (PC-3 prostate) | TGI (SF-268 CNS) | TGI (SK-MEL-5 melanoma) | TGI (SNB-75 CNS) | TGI (T-47D breast) [µM] | TGI (RPMI-8226 leukemia) [µM] | GI50 (HCT-15 colon) | GI50 (HS 578T breast) | GI50 (RPMI-8226 leukemia) | GI50 (SF-268 CNS) | GI50 (SNB-75 CNS)
COc1cc(C(=O)N(C(=S)OC23CC4CC(CC(C4)C2)C3)c2ccccc2)cc(OC)c1OC | 36 | 39 µM | > 100 µM | > 100 | 82.1 µM | > 100 | 21.8 µM | > 100 µM | > 100 µM | 32.9 µM | > 100 µM | > 100 | – | – | – | – | – | –
COC(=O)C1SC[C@H]2C(=O)N(c3ccccc3)C(=O)N12 (stereo partly drawn) | > 100 | > 100 µM | > 100 µM | > 100 | > 100 µM | > 100 | > 100 µM | > 100 µM | > 100 µM | > 100 µM | > 100 µM | > 100 | > 100 | – | – | – | – | –
COC1C(OC(C)=O)CC(=O)OC(C)C/C=C/C=C\C(O)C(C)CC(CC=O)C1OC1OC(C)C(OC2CC(C)(O)C(OC(=O)CC(C)C)C(C)O2)C(N(C)C)C1O (stereo not drawn) | > 100 | > 100 µM | > 100 µM | > 100 | > 100 µM | > 100 | – | > 100 µM | > 100 µM | > 100 µM | > 100 µM | > 100 | > 100 | 36.4 µM and > 100 µM | > 100 µM and 42 µM | – | – | –
C#CCOC(=O)[C@@H](C)c1ccc2cc(OC)ccc2c1 | > 100 | > 100 µM | > 100 µM | > 100 | – | > 100 | > 100 µM | > 100 µM | > 100 µM | > 100 µM | > 100 µM | > 100 | > 100 | – | – | – | – | –
COC(=O)C1(Cc2ccc(C)cc2)Cc2c(C)cccc2C1=O (stereo not drawn) | > 100 | 33.4 µM | 75.9 µM | 46.9 | 30.8 µM | 13.2 | > 100 µM | 42 µM | > 100 µM | 26.3 µM | > 100 µM | 72.1 | 40.6 | – | – | – | – | –
N#Cc1c2ccc([N+](=O)[O-])cc2c(=O)n2c1sc1ccccc12 | 34.4 | 37.7 µM | > 100 µM | > 100 | – | > 100 | – | 43.9 µM | > 100 µM | > 100 µM | > 100 µM | 71.4 | 40.5 | – | – | – | – | –
COc1ccc(-c2nc(SC)n(C3OC(COC(C)=O)C(OC(C)=O)C(OC(C)=O)C3OC(C)=O)c(=O)c2C#N)cc1 (stereo not drawn) | > 100 | > 100 µM | > 100 µM | > 100 | > 100 µM | > 100 | > 100 µM | > 100 µM | > 100 µM | > 100 µM | 57.9 µM and > 100 µM | > 100 | > 100 | – | – | 47.4 µM and > 100 µM | 21.8 µM and 76.4 µM | 22.8 µM and 65.6 µM
COc1ccc2[nH]c3c(C)c4ncccc4c(C)c3c2c1 | > 10 | > 10 µM | > 10 µM | > 10 | 3.42 µM | 3.21 | > 10 µM | > 10 µM | > 10 µM | > 10 µM | > 10 µM | > 10 | 7.56 | – | – | – | – | –
ClCCc1ccccc1CC1=NCCc2ccccc21 | > 100 | 63.5 µM | > 100 µM | > 100 | – | > 100 | > 100 µM | > 100 µM | > 100 µM | 47.9 µM | 96.8 µM | > 100 | 45.9 | – | – | – | – | –
Cc1nn(C(=O)c2ccncc2)c2c1C(c1ccc([N+](=O)[O-])cc1)SC(N)=N2 (stereo not drawn) | > 100 | > 100 µM | > 100 µM | > 100 | > 100 µM | > 100 | > 100 µM | > 100 µM | > 100 µM | > 100 µM | > 100 µM | > 100 | > 100 | – | – | – | – | –
CCOC1=NC(C(F)(F)F)(C(F)(F)F)N=C(N2CCCCC2)O1 | > 100 | > 100 µM | > 100 µM | > 100 | > 100 µM | > 100 | > 100 µM | > 100 µM | > 100 µM | > 100 µM | > 100 µM | > 100 | > 100 | – | – | – | – | –
COc1cc(C2SCC(=O)N2NC(=O)c2ccc(NC(C)=O)cc2OC)ccc1O (stereo not drawn) | > 100 | > 100 µM | > 100 µM | > 100 | > 100 µM | > 100 | > 100 µM | > 100 µM | 99 µM | – | 46.7 µM | > 100 | > 100 | – | – | – | – | –
COc1ccc2c(c1)C(=O)[C@@](Nc1ccc(C=O)cc1)(OC)[C@@](OC)(c1ccc([N+](=O)[O-])cc1)O2 | > 10 | > 10 µM | > 10 µM | > 10 | > 10 µM | > 10 | > 10 µM | > 10 µM | > 10 µM | > 10 µM | > 10 µM | > 10 | > 10 | – | – | – | – | –
COc1ccc2c(c1)c(=O)c1c(NCCCN(C)C)ccc3ncn2c31 | 45.3 | 18.6 µM | 14.7 µM | 29.3 | 26 µM | 19.4 | 13.9 µM | 15.6 µM | 16.1 µM | 24.3 µM | 19.8 µM | 32.8 | > 27.7 | – | – | – | – | –
CS(=O)(=O)CCC(N)P(=O)(O)O (stereo not drawn) | > 100 | > 100 µM | > 100 µM | > 100 | > 100 µM | > 100 | > 100 µM | > 100 µM | > 100 µM | > 100 µM | > 100 µM | > 100 | > 100 | – | – | – | – | –
O=C1CSC(c2cccc(Oc3ccccc3)c2)N1c1cccc(Cl)c1Cl (stereo not drawn) | > 100 | 44.1 µM | 46.8 µM | 84.7 | 82.9 µM | 56.1 | 55.7 µM | 95.3 µM | 60 µM | 50 µM | > 100 µM | > 100 | – | – | – | – | – | –
O=C(N[C@@H](Cc1ccccc1)B(O)O)[C@H](Cc1cccc2ccccc12)NC(=O)N1CCOCC1 | 0.0022 | 0.197 µM and 0.233 µM | 0.61 µM and 0.405 µM | 0.213 | 0.0103 µM and 0.0226 µM | 0.00103 | 0.00366 µM and 0.0107 µM | 0.106 µM and 0.134 µM | 0.00654 µM and 0.058 µM | 0.00392 µM and 0.014 µM | 0.0558 µM | 0.00368 | 0.00414 | – | – | – | – | –
